Assay results reported in BindingDB's records for doi:10.3109/14756366.2013.823958 (Birla Institute of Technology, 2014).

target: T1, Secreted chorismate mutase (Mycobacterium tuberculosis (strain ATCC 25618 / H37Rv), UniProt P9WIB9); assay: CM Assay; conditions: pH 7.5; 37 °C
T1 sequence (P9WIB9 whole entry): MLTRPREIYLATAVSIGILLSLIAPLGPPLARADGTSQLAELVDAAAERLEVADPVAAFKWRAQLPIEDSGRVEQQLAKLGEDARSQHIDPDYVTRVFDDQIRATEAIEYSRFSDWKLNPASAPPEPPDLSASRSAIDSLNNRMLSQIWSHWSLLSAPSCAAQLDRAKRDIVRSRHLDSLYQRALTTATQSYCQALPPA
Method: Reaction volumes of 0.4 mL of chorismate (typically, 1 mM) in 50 mM Tris-HCl (pH 7.5), 0.5 mM EDTA, 0.1 mg/mL bovine serum albumin, and 10 mM β-mercaptoethanol were incubated at 37 °C for 5 min. The reaction was started with 5 pmol of MTB CM in a 10-μl volume (i.e. 185 ng of MTB CM equivalent toa 12.5nM final concentration of the dimer based on the molecular mass of 36 948 Da). The reaction was allowed to proceed at 37 °C and was terminated after 1 min to 5 min with 0.4 ml of 1N HCl. After a further incubation at 37 °C for 10 min to convert prephenate, which is formed in the enzymatic reaction, tophenylpyruvate, 0.8 ml of 2.5N NaOH was added. The absorbance of the phenylpyruvate chromophore was read at 320 nm. We set up a blank with no enzyme for every reaction to account for the non-enzymatic conversion of chorismate to prephenate and added the enzyme after NaOH addition. The A320 for the blank varied from 0.1 to 0.3, depending on the concentration of chorismate and duration of the reaction. Each reaction was carried out in triplicates.

Q: How did the IC50 turn out when `Cc1ccc(C(C)C)cc1O` was run?
A: 1.06 µM

Q: Which IC50 does the source give for `Cc1ccc(C(C)C)cc1` [Carvacrol derivative, 8] here?
A: 11.6 µM

Q: For `C=C(C)C1CCC(C)CC1O` (stereo not drawn) [(±)Neo isopulegol], which IC50 is on record?
A: 13.6 µM

Q: With `Cc1cc(O)cc(C(C)C)c1` [Carvacrol derivative, 7] as the compound, how does the IC50 read?
A: 26.8 µM

Q: `Cc1ccccc1O` [Carvacrol derivative, 9] was tested. Which IC50 did it give?
A: 23.1 µM

Q: `CC(C)c1cccc(O)c1` [Carvacrol derivative, 10] was tested. Which IC50 did it give?
A: 21.4 µM

Q: Which IC50 does the source give for `CC1CCC(C(C)C)C(O)C1` (stereo not drawn) [Menthol] here?
A: 26.4 µM

Q: Which IC50 does the source give for `CC(=O)Oc1cc(C)ccc1C(C)C` [Thymol derivative, 17] here?
A: 4.08 µM

Q: For `C=CCc1ccc(O)c(OC)c1` [2-methoxy-4-(prop-2-en-1-yl)phenol4-allyl-2-methoxyphenol], which IC50 is on record?
A: 28.6 µM

Q: How did the IC50 turn out when `COc1cc(C)ccc1C(C)C` [Thymol derivative, 21] was run?
A: 21.6 µM

Q: With `Cc1ccc(C(C)C)c(O)c1` [5-methyl-2-(propan-2-yl)phenol] as the compound, how does the IC50 read?
A: 28.4 µM

Q: For `Cc1cc(Cl)c(C(C)C)cc1O` [Carvacrol derivative, 15], which IC50 is on record?
A: 13.7 µM

Q: Which IC50 does the source give for `COc1cc(C=O)ccc1O` [4-hydroxy-3-methoxybenzaldehyde] here?
A: 24.8 µM
